Values after ≈ are worked out from the molar mass of the structure shown. Read-outs that look alike come from different tables or passages of the source. Marks after values point to notes of the source that are not given here.
Legend:
[1] = system: leishmaniasis animal model; set-up: method as in PMID 28967262; details: cited from earlier work
LdMetRS [2] = molecular target: T1, LdMetRS (Leishmania donovani, UniProt A0A3Q8IBX2); set-up: method as in PMID 28967262; details: cited from earlier work
T1 sequence (A0A3Q8IBX2 entry or part of it): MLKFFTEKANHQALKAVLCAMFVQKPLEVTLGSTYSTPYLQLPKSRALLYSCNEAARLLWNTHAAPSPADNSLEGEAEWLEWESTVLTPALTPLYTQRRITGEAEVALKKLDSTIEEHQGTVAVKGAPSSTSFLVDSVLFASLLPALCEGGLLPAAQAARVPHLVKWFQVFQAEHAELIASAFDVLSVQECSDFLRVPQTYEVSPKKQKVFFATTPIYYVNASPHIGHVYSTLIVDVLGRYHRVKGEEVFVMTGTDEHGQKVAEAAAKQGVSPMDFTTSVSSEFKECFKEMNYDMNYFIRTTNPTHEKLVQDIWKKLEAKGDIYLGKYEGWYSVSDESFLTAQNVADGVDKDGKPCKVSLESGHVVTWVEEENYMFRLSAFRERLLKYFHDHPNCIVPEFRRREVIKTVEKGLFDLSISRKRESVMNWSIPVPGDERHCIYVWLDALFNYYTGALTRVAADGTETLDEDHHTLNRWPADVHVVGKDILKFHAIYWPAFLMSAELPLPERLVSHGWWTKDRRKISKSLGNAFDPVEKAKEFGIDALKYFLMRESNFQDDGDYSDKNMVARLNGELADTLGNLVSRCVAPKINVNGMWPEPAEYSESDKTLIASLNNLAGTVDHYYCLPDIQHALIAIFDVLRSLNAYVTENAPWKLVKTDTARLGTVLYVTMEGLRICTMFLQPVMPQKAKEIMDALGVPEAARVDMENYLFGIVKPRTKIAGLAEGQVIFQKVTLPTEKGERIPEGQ

TcMetRS [3] = molecular target: T2, TcMetRS (Trypanosoma cruzi, UniProt Q4D6H2); test: TcMetRS BIOMOL Green biochemical assay, 10-point dose response
LdMetRS [4] = molecular target: T1, LdMetRS; test: LdMetRS BIOMOL Green biochemical assay, 10-point dose response
TcMetRS [5] = molecular target: T2, TcMetRS; test: TcMetRS mode of inhibition studies; assay type: biochemical; details: for Ki / h (inhibitor Hill slope) / β (fraction of activity remaining) / Vmax / n (substrate Hill slope) / Ks: TcMetRS; for Ki: fit to eq 7, ± SE of fit; for Vmax: global fit parameter; for n (substrate Hill slope) / Ks: global fit; for Ks: substrate dissociation constant
Excerpt: It was therefore feasible to perform TcMetRS mode inhibition studies with this compound. These studies, carried out as previously described for LdMetRS, confirm a best fit to the same partial, cooperative, noncompetitive inhibition model (eq 7; Supporting Information Figure 6 and Table 4).
(§1) Using GraFit v6.0 (Erithacus Software), each data set was globally fitted to standard competitive, uncompetitive, and noncompetitive inhibition models (eqs 3–5).
(§2) Equation 5 (noncompetitive inhibition model): [drawing 5] 5 On the basis of poor data fits to the above models, partial inhibition and cooperativity parameters were introduced into the uncompetitive and noncompetitive models as previously described by Skovpen et al.[30],[31] Mode of inhibition data were globally fitted to these modified equations (eqs 6 and 7).
(§3) Equation 7 (cooperative, noncompetitive, partial inhibition model): [drawing 7] 7 v is the velocity, Vmax is the maximum velocity, [S] is the substrate concentration, [I] is the inhibitor concentration, Ki is the inhibitor constant, Ks is the substrate dissociation constant, n is the substrate Hill slope, h is the inhibitor Hill slope, and β is the proportionality constant (fraction of activity remaining when the enzyme is fully saturated with inhibitor).
(§4) If more than one model appeared possible, then data were fitted to both and examined for significance using the F-test function in GraFit.

LdMetRS [6] = molecular target: T1, LdMetRS; test: LdMetRS mode of inhibition studies; assay type: biochemical; details: for Ki / h (inhibitor Hill slope) / β (fraction of activity remaining) / Vmax / n (substrate Hill slope) / Ks: LdMetRS; for Ki: fit to eq 7, ± SE of fit; for Vmax: global fit parameter; for n (substrate Hill slope) / Ks: global fit; for Ks: substrate dissociation constant
Excerpt: Subsequent full mode of inhibition studies with compounds from the MetRS02 series were more challenging due to the partial inhibition profiles of some compounds resulting in poor global fits to the standard competitive, uncompetitive, and noncompetitive inhibition models (eqs 3, 4, and 5, respectively). In addition, during the enzymatic characterization of methionine binding to LdMetRS, a Hill slope of <1 was obtained (and was hypothesized to be due to conformational selection).[6] This low Hill slope is also not factored into the standard inhibition models described (eqs 3–5). New models with additional parameters to account for the partial inhibition and low methionine Hill slope were therefore required (eqs 6 and 7). Using these modified equations, the mode of inhibition of compound 27 was carried out by testing LdMetRS enzyme activity under varying substrate concentrations at various inhibitor concentrations (Figure 5). The cooperative, noncompetitive, partial inhibition model (eq 7) was confirmed as the best fit (using F-test analyses), with a noncompetitive mode of inhibition consistent with binding in an allosteric binding pocket. The returned fit parameters are shown in Table 4 and are presented with the standard error (SE) of the fit to eq 7.
as §1, §2, §3, §4

CHI LogD measurement = assay type: physicochemical; details: chromatographic hydrophobicity index
Experimental: CHI LogD measurements were performed as described elsewhere.[29] cLogP measurements were calculated using StarDrop (Optibrium).

[7] = Aqueous solubility, filtration-based method; assay type: physicochemical; details: aqueous buffer, kinetic from dmso stock; phosphate-buffered saline pH 7.4, 24 h, 25 °C
Experimental: Solubility was assessed using a filtration-based method. Test compounds were dissolved in DMSO to give 10 mM solutions. Five microliters of the 10 mM solution was added to 195 μL of phosphate-buffered saline at pH 7.4 and mixed for 24 h (rotary mixing, 900 rpm, 25 °C) excluding light. After mixing, the samples were filtered to remove any undissolved material using a Millipore Multiscreen HTS filter. The filtrate was analyzed for dissolved drug compounds using UHPLC.

LdMetRS [8] = molecular target: T1, LdMetRS; details: read-out: LdMetRS Km app; cited from earlier work
TcMetRS [9] = molecular target: T2, TcMetRS; test: TcMetRS kinetic parameter determinations (Km app); assay type: biochemical
Experimental: (§5) The activity of the TcMetRS enzyme was determined by monitoring levels of pyrophosphate released during the first step of the enzymatic reaction. The pyrophosphate formed was converted to two inorganic phosphate molecules using a pyrophosphatase enzyme, and levels of the resulting phosphate molecules were measured using the BIOMOL Green reagent (Enzo Life Sciences).
(§6) TcMetRS assays were carried out using 384-well, clear, flat-bottomed plates (Greiner) at room temperature (∼23 °C) in 50 μL reaction volumes of assay buffer (30 mM Tris, pH 8.0, 140 mM NaCl, 30 mM KCl, 40 mM MgCl2, 0.01% (v/v) Brij-35, 1 mM DTT) plus 1 U/mL pyrophosphatase and varying concentrations of enzyme and substrates. Enzyme linearity was assessed in a 90 min end-point assay with varying TcMetRS concentrations (0–320 nM), 50 μM L-methionine, and 100 μM ATP. Reactions were stopped with the addition of 50 μL of BIOMOL Green reagent, with the signal allowed to develop for 30 min before the absorbance of each well was read at 650 nm (A650) using a PheraStar plate reader (BMG).
(§7) Apparent Michaelis constants (Km^app) for the L-methionine and ATP substrates were determined in end-point assays using the above buffer conditions and 80 nM recombinant TcMetRS. […] To determine the ATP Km^app, various ATP concentrations were tested in the presence of a fixed, saturating concentration of L-methionine (3 mM). […]

[10] = substrate: CSCC[C@H](N)C(=O)O; test: TcMetRS kinetic parameter determinations (Km app); assay type: biochemical, Trypanosoma cruzi; details: other: saturating 350 μM ATP; N = 3; pH 8.0; 23.0 °C
Experimental: as §5, §6, §7

Molecule: O=c1nc(NCCCNCc2cc3c(Cl)cc(Cl)cc3[nH]2)[nH]c2ccccc12 [DDD806905, reference compound]
- in vivo efficacy [1]: failed to show in vivo efficacy
- LdMetRS pIC50 (LdMetRS [2]): 7.0
- IC50 (TcMetRS [3]; 50 μM methionine, 100 μM ATP, 80 nM TcMetRS, read-out: TcMetRS pIC50 (converted)): 39.8 nM
- IC50 (TcMetRS [3]; 50 μM methionine, 100 μM ATP, 80 nM TcMetRS, tight binding limit likely reached, read-out: TcMetRS IC50): 38 nM

Molecule: COC(=O)CNc1nc(Nc2ccc(F)c(F)c2)nc2c1cnn2C [Compound 27]
- IC50 (LdMetRS [4]; LdMetRS pIC50, 50 µM ATP and 50 µM methionine): 1.41e-06 M
- IC50 (LdMetRS [4]; LdMetRS pIC50, 50 μM methionine, 100 μM ATP, 50 nM LdMetRS, pIC50 = −log IC50 (M)): 1.26e-06 M
- IC50 (LdMetRS [4]; LdMetRS pIC50, both substrate concentrations increased to 500 µM): 1.41e-06 M
- IC50 shift on increasing substrate concentrations (LdMetRS [4]; methionine and ATP increased from 50 μM each to 500 μM, preliminary data): no IC50 shifts
- Emax (LdMetRS [4]; read-out: LdMetRS Maximum % Inhibition Plateau): 92.9%
- fold difference in Ki, TcMetRS versus LdMetRS (TcMetRS [5]; Ki from mode of inhibition studies, Table 4): 5–7 fold
- Ki (TcMetRS [5]; varied substrate ATP): 11300 ± 1200 nM
- Ki (TcMetRS [5]; varied substrate methionine): 10800 ± 700 nM
- h (inhibitor Hill slope) (TcMetRS [5]; substrate ATP, eq 7): 1.27 ± 0.14
- β (fraction of activity remaining) (TcMetRS [5]; substrate ATP, eq 7): 0.48 ± 0.02
- Vmax (TcMetRS [5]; substrate ATP, eq 7): 0.287 ± 0.006 μM Piformed/min
- n (substrate Hill slope) (TcMetRS [5]; substrate ATP, eq 7): 1.07 ± 0.03 ^b
- Ks (TcMetRS [5]; substrate ATP, eq 7): 40.5 ± 2.0 µM
- h (inhibitor Hill slope) (TcMetRS [5]; substrate methionine, eq 7): 1.48 ± 0.11
- β (fraction of activity remaining) (TcMetRS [5]; substrate methionine, eq 7): 0.65 ± 0.01
- Vmax (TcMetRS [5]; substrate methionine, eq 7): 0.429 ± 0.016 μM Piformed/min
- n (substrate Hill slope) (TcMetRS [5]; substrate methionine, eq 7): 0.42 ± 0.01
- Ks (TcMetRS [5]; substrate methionine, eq 7): 1340 ± 237 µM
- mode of inhibition, TcMetRS (TcMetRS [5]; best fit, eq 7): noncompetitive
- IC50 (TcMetRS [3]): > 100000 nM
- Emax (TcMetRS [3]; read-out: TcMetRS Maximum % Inhibition): 44.2 ± 6.5%
- Ki (LdMetRS [6]; varied substrate ATP): 1580 ± 40 nM
- Ki (LdMetRS [6]; varied substrate methionine): 2060 ± 40 nM
- h (inhibitor Hill slope) (LdMetRS [6]; substrate ATP, eq 7): 1.10 ± 0.02
- β (fraction of activity remaining) (LdMetRS [6]; substrate ATP, eq 7): 0.027 ± 0.005
- Vmax (LdMetRS [6]; substrate ATP, eq 7): 0.324 ± 0.004 μM Piformed/min
- n (substrate Hill slope) (LdMetRS [6]; substrate ATP, eq 7): 1.07 ± 0.02 ^b
- Ks (LdMetRS [6]; substrate ATP, eq 7): 21.1 ± 0.6 µM
- h (inhibitor Hill slope) (LdMetRS [6]; substrate methionine, eq 7): 1.05 ± 0.02
- β (fraction of activity remaining) (LdMetRS [6]; substrate methionine, eq 7): 0.060 ± 0.005
- Vmax (LdMetRS [6]; substrate methionine, eq 7): 0.388 ± 0.009 μM Piformed/min
- n (substrate Hill slope) (LdMetRS [6]; substrate methionine, eq 7): 0.50 ± 0.01
- Ks (LdMetRS [6]; substrate methionine, eq 7): 327 ± 35 µM
- mode of inhibition, LdMetRS (LdMetRS [6]; best fit by F-test, eq 7): noncompetitive
- chromatographic logD (CHI LogD measurement): 2.17
- solubility at 24 h [7]: 5.5 µM (≈ 1.92 µg/mL)

Molecule: CSCC[C@H](N)C(=O)O [methionine]
- Km (LdMetRS [8]): 173 µM

Molecule: Nc1ncnc2c1ncn2[C@@H]1O[C@H](COP(=O)(O)OP(=O)(O)OP(=O)(O)O)[C@@H](O)[C@H]1O [ATP]
- Km (LdMetRS [8]): 37 µM
- substrate inhibition constant (TcMetRS [9]; ATP, 3 mM methionine): 2080 µM
- Km (TcMetRS [9]; saturating 3 mM methionine, N = 3, read-out: TcMetRS apparent Michaelis constant (Km app) for ATP): 63 µM

B1: TcMetRS (Trypanosoma cruzi strain CL Brener) (protein)
chain: MSLKLFSEKANTQALKALLCCHHVKRPVELTLSGAYTSPVLHHPALKQPIFSANEMVRLILHDKWRDDSAGGSGGKKTGCYDGHWASVSLEEEAWLEWEATTFTCAVHPLYTQRRVTPEAAGAFEYLDNKIHENDCRGPCLAPVGEKGTSTKSPSFLVDCIIWCAVLPALCEGGLLGEKEREKLPHLLKWFESFQSAREAHIAGAVESLAVQEFADFLRAPRVYKLSPKISKVFFITTPIYYVNAAPHIGHVYSTLIVDVIGRYHTMKGERVFAMSGTDEHGQKVAEAARQKGMNPYDFTCQVSREFIDCFEQMGYHMDYFIRTTNESHKKVVHELWSKLEAKGDIYLGRYEGWYSVSDESFLTAQNVTDGVDKDGKPCKVSLESGHVVTWLAEDNYMFRLSAFRERLLEWYNNNPGCIVPEFRRREVIRTVEKGLNDLSVSRTREAVQDWAIPVPGNPNHCIYVWLDALSNYYTASRLRLGKSGEELELVEDHRVLERFPADIHVIGKDILKFHAIYWPAFLISAGLPLPKTIVAHGWWTKDRKKISKSLGNVFDPVEKAREFGFDALKYFLLRETGFSDDGDYSDRNMISRLNGELADTLGNLVMRCTSAKINVHRVWPTPDAYNAKDEALIQLIKDLPGVVDHFFLIPDVQKALAAVFDLLRAINSYVTENAPWRLVKTDPDRLRTVLYITMEGTRLATLMLSPVLSQKAPVIFDMLGVPEANRVGVENFGFGVVPSGTSIGDAVEGKVLFPKISLDKAQSA
- Km [10]: 212 µM
